According to patent publication US12337010B2, “Compositions and methods of treatment using nicotinamide mononucleotide” (Washington University, priority 2017, dated 2025):

Tests used:
Slc12a8 = biological target: T1, Slc12a8 (Mus musculus, UniProt Q8VI23); test: 3H-NMN uptake and displacement in Slc12a8-OE proteoliposomes; assay type: biochemical
T1 construct: NIH3T3 cells were transfected with 5 μg of pCXN2 carrying the full-length Slc12a8 cDNA (Slc12a8-OE); expressed in transfected cells
T1 sequence (Q8VI23 1-705): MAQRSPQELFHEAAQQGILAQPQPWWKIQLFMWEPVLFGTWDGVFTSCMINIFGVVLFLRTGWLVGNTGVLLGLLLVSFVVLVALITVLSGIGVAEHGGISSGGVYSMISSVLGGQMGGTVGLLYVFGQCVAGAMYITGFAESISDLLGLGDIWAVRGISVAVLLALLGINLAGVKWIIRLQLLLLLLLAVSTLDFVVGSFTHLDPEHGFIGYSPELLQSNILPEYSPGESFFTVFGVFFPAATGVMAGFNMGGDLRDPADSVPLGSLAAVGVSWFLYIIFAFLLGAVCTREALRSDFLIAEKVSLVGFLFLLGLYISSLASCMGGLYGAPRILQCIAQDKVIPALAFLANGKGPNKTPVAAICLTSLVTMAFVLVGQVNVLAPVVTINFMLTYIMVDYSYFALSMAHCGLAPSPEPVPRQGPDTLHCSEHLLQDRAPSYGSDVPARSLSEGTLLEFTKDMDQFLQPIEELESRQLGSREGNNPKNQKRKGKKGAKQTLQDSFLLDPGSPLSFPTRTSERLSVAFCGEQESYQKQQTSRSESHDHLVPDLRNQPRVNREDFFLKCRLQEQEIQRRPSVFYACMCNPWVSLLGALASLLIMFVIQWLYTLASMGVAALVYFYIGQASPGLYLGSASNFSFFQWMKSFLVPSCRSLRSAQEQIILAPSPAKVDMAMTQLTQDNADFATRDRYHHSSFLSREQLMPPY
Protocol: Proteoliposome experiments. Proteoliposome preparation was carried out as previously described (Bruzzone, S., et al., FASEB J., 15, 10-12, 2001). Briefly, 2×10^7 control or Slc12a8-OE NIH3T3 cells were resuspended in 1 ml of lysis buffer (10 mM Tris-HCl, pH 8.3, 150 mM NaCl, 0.3 M sucrose, protease inhibitor cocktail) and disrupted using a homogenizer. The lysate was centrifuged for 10 min at 3,000×g, and the supernatant was collected and centrifuged for 15 min at 100,000×g. The membrane proteins were solubilized with buffer A (10 mM Tris-HCl, pH 8.3, containing 150 mM NaCl and 0.5% n-octyl β-glucopyranoside). Separately, total lipids were extracted from hemoglobin-free erythrocyte membranes (ghosts) as described previously (Franco, L., et al., FASEB J., 12, 1507-1520, 1998). Total lipids from human erythrocyte membranes (3 mg) were dried and resuspended with 600 μl of solubilized membrane proteins (at approximately 0.7 mg/ml protein concentration). The resulting emulsions were sonicated in ice for 1 min and dialyzed against 5 liters of buffer A without n-octyl-β-glucopyranoside (dialysis buffer) for 24 h at 4° C. Proteoliposomes were recovered, centrifuged for 15 min at 100,000×g, resuspended in 900 μl dialysis buffer and passed 5 times through a 30-gauge needle.
To examine the Na+-dependency of Slc12a8, NaCl was replaced with 150 mM LiCl. All steps were carried out at 4° C. Proteoliposomes (30 μl in triplicate for each condition) were incubated for 2, 5 or 10 min at 25° C. in the presence of […] 3H-β-NMN (specific activity, 9.1 Ci/mmole) with or without label-free nucleotides (NMN, NR, NAD, AMP; NAM or NaMN). At the end of incubations, samples were filtered on a glass fiber paper. Filters were washed with 3 ml of dialysis buffer, dried, and counted for radioactivity.
Proteoliposomes were produced by combining the membrane fractions of Slc12a8-OE or control NIH3T3 cells with the phospholipid bilayers derived from deproteinized erythrocyte plasma membrane as described supra using 22 nM, ^3H-NMN at 25° C. in proteoliposomes produced from plasma membrane fractions of Slc12a8-OE and control NIH3T3 cells in transport buffer (n=3; analyzed by one-way ANOVA with Sidak's multiple comparisons test).
In order to determine substrate specificity of Slc12a8, these Slc12a8-OE proteoliposomes were used for displacement experiments with ^3H-NMN and various cold NAD+-related compounds. Uptake of ^3H-NMN (150 nM, 25° C.) was measured at 2 min in Slc12a8-OE proteoliposomes in the presence of 150 μM competing cold compounds (NMN, NR, NAD, AMP, NaMN, and nicotinamide) in transport buffer (n=3, analyzed by ANOVA with Dunnett's test). […] Data are shown as percentages of ^3H-NMN uptake (n=3; IC50 was calculated by non-linear regression analysis).
In these experiments, the sodium ion dependency of Slc12a8 for NMN transport was evaluated using the proteoliposome system.

[1] = test system: various types of primary cells; details: NMN co-administered with FK866, compared to NMN in the absence of FK866; cited from earlier work

## NC(=O)c1ccc[n+]([C@@H]2O[C@H](COP(=O)([O-])O)[C@@H](O)[C@H]2O)c1 [NMN, nicotinamide mononucleotide]
Slc12a8; 150 μM cold compound, 150 nM 3H-NMN, 25° C., 2 min
  displacement of 3H-NMN: complete displacement
Slc12a8; Slc12a8-OE proteoliposome system
  IC50: 22.8 ± 3.6 µM
[1]
  NAD+ increase: higher NAD+ increases
